Key:
[1] = tested on: pigs with autologous nucleus pulposus applied to the sacrococcygeal cauda equina; assay: Example 6: nerve conduction velocity 3 days after application of nucleus pulposus mixed with inhibitors; assay type: in vivo; details: pig; inhibitor mixed with NP before application (100 µg antibody each, 2 mg doxycycline)
Protocol: Fourteen pigs, (body weight 25-30 kg) received an intramuscular injection of 20 mg/kg body weight of KETALAR® (ketamine 50 mg/ml, Parke-Davis, Morris Plains, N.J.) and an intravenous injection of 4 mg/kg body weight of HYPNODIL® (methomidate chloride 50 mg/ml, AB Leo, Helsingborg, Sweden) and 0.1 mg/kg body weight of STRESNIL® (azaperon 2 mg/ml, Janssen Pharmaceutica, Beerse, Belgium). Anesthesia was maintained by additional intravenous injections of 2 mg/kg body weight of HYPNODIL® and 0.05 mg/kg body weight of STRESNIL®. The pigs also received an intravenous injection of 0.1 mg/kg of STESOLID NOVUM® (Diazepam, Dumex, Helsingborg) after surgery.
Nucleus pulposus was harvested from the 5th lumbar disc through a retroperitoneal approach. […]
Three days after the application, the pigs were reanaesthetized by an intramuscular injection of 20 mg/kg body weight of KETALAR® and an intravenous injection of 35 mg/kg body weight of PENTOTHAL® (Thiopental sodium, Abbott lab, Chicago, Ill.). […] Local tissue temperature was continuously monitored and maintained at 37.538.0. degree. […]
The person performing the neurophysiologic analyzes was unaware of the experimental protocol for the individual animal, and after finishing the complete study the data were arranged in the three experimental groups and statistical differences between the groups were assessed by Student's t-test. […]

[2] = tested on: nucleus pulposus-induced nerve root injury; details: previous publications; cited from earlier work
[3] = tested on: pigs with autologous nucleus pulposus placed onto the sacrococcygeal cauda equina; assay: Series-3: nerve root conduction velocity 7 days after nucleus pulposus application, systemic TNF inhibitors; assay type: in vivo, pig; details: for Effect on nucleus pulposus induced nerve injury: 7 days, systemic treatment; for NCV (m/s +/− SD): pig, 7 days after NP application, infliximab 100 mg i.v. preoperatively, etanercept 12.5 mg s.c. twice
Protocol: Series-3: Thirteen pigs had autologous nucleus pulposus placed onto their sacrococcygeal cauda equina similar to series-2. Five pigs (body weight 25 kg) received REMICADE® (infliximab) 100 mg i.v. preoperatively, and 8 pigs received ENBREL® (etanercept) 12.5 mg s.c. preoperatively and additionally 12.5 mg s.c. three days after the operation. Seven days after the nucleus pulposus-application the nerve root conduction velocity was determined over the application zone by local electrical stimulation according to series-2. Thirteen pigs had autologous nucleus pulposus placed onto their sacrococcygeal cauda equina similar to series-2. Five pigs (bodyweight 25 kg) received the human/murine monoclonal antibody, REMICADE® (infliximab, […]) 100 mg i.v. preoperatively, and 8 pigs received ENBREL® (etanercept, Centocor B.V., Leiden, the Netherlands) 12.5 mg s.c. preoperatively and additionally 12.5 mg s.c. three days after the operation. Seven days after the nucleus pulposus-application the nerve root conduction velocity was determined over the application zone by local electrical stimulation according to series-2. […] No non-treated animals were included in the series-3 due to the pre-existing knowledge of nerve conduction velocity after seven days of either nucleus pulposus or fat (control) application. The statistical difference between the groups, infliximab, and etanercept, nucleus pulposus without treatment (positive control from previous data) and application of retroperitoneal fat (negative control from previous data) was assessed by using ANOVA and Fisher's PLSD at 5%.

| Molecule | Block of nucleus pulposus-related effects [2] | Effect on nucleus pulposus induced nerve injury [3] | NCV (m/s +/− SD) [3] | also measured |
| --- | --- | --- | --- | --- |
| C[C@H]1c2cccc(O)c2C(=O)C2=C(O)[C@]3(O)C(=O)C(C(N)=O)=C(O)[C@@H](N(C)C)[C@@H]3[C@@H](O)[C@@H]21 [Doxycycline, doxycycline] | – | – | – | Nerve conduction velocity (m/s) 3 days after application [1]: 53 +/− 22 m/s |
| COc1ccc2c(c1)c(CC(=O)O)c(C)n2C(=O)c1ccc(Cl)cc1 [indomethacin] | slightly less efficiently | – | – | – |
| CCN(CC)CC(=O)Nc1c(C)cccc1C [lidocaine] | slightly less efficiently | – | – | – |
| cyclosporin A | blocked efficiently | – | – | – |
| etanercept [ENBREL ®] | – | blocked the nucleus pulposus induced nerve injury efficiently | 78 +/− 14 m/s | – |
| infliximab [REMICADE ®] | – | blocked the nucleus pulposus induced nerve injury efficiently | 79 +/− 15 m/s | – |
